Laboratory results reported in patent publication US6649637B2, “Inhibition of intracellular replication by pyridinylimidazoles” (priority 2001, dated 2003).
Where two headings read alike, the source gives them in different places.

Experiments:
[1] = test system: T. gondii RH strain tachyzoites; test: [3H]methyluracil incorporation: intracellular tachyzoite replication in human fibroblasts, RH strain; format: cell-based, Toxoplasma gondii; conditions: drug added 6 hours after infection; for inhibition of intracellular RH strain tachyzoite replication: dose-dependent
[2] = test system: T. gondii Me49 strain tachyzoites; test: [3H]methyluracil incorporation: intracellular tachyzoite replication in human fibroblasts, Me49 strain; format: cell-based, Toxoplasma gondii; conditions: for Me49 strain more susceptible to growth inhibition than RH strain: ratio of IC50 RH / Me49
[3] = test system: mutant tachyzoite SBRRH2; test: Replication of SB203580-resistant RH clone SBRRH2 in fibroblasts; format: cell-based, Toxoplasma gondii
[4] = test system: T. gondii acyl-CoA:cholesterol acyltransferase; test: Cholesterol esterification ([14C]oleate pulse labelling) in extracellular tachyzoites; format: biochemical, Toxoplasma gondii; conditions: 10 μM, extracellular RH tachyzoites, 7 hours
Method: (§1) The mean of triplicate replications with standard error bars is shown. “Control” is no drug treatment.
One experiment representative of 4 is shown for each measure.
Cholesterol esterification activity was assessed by pulse-labeling of cells using radiolabeled fatty acid as substrate. […] At the time of drug addition, acyl-CoA:cholesterol acyltransferase activity was stimulated with 25-hydroxycholesterol plus cholesterol and cells were pulse-labeled for 2 hours with 20 μl sodium [^14C]oleate-albumin complex. Lipids were extracted with hexane/isopropanol (3:2 ratio) and the organic solvents evaporated under a nitrogen stream. Lipids were resuspended in chloroform, spotted on TLC silica gel G plates (Fisher, Fairlawn, N.J.) and separated in hexane/ethyl ether/glacial acetic acid (80:20:1 ratio). Cholesterol ester content was determined by liquid scintillation and normalized as pmol ^14C/mg protein. […] After 3 days, cells were fixed in paraformaldehyde, rinsed in PBS, stained with filipin (Sigma) and examined by fluorescence microscopy using an excitation filter of 350-410 nm. Cholesterol content was determined in densitometric units measured with an Alpha Imager 2000 (Alpha Innotech Corporation, San Leandro, Calif.).

[5] = test system: RH strain tachyzoites; test: Tachyzoite cholesterol content (densitometric units); format: cell-based, Toxoplasma gondii; conditions: 10 μM
Method: as §1
Cholesterol esterification activity was assessed by pulse-labeling of cells using radiolabeled fatty acid as substrate. […] At the time of drug addition, acyl-CoA:cholesterol acyltransferase activity was stimulated with 25-hydroxycholesterol plus cholesterol and cells were pulse-labeled for 2 hours with 20 μl sodium [^14C]oleate-albumin complex. Lipids were extracted with hexane/isopropanol (3:2 ratio) and the organic solvents evaporated under a nitrogen stream. Lipids were resuspended in chloroform, spotted on TLC silica gel G plates (Fisher, Fairlawn, N.J.) and separated in hexane/ethyl ether/glacial acetic acid (80:20:1 ratio). Cholesterol ester content was determined by liquid scintillation and normalized as pmol ^14C/mg protein. For cytochemical staining of 3-hydroxysterols, fibroblasts were seeded on poly-lysine coated coverslips, infected with RH T. gondii tachyzoites and incubated with drugs as described. After 3 days, cells were fixed in paraformaldehyde, rinsed in PBS, stained with filipin (Sigma) and examined by fluorescence microscopy using an excitation filter of 350-410 nm. Cholesterol content was determined in densitometric units measured with an Alpha Imager 2000 (Alpha Innotech Corporation, San Leandro, Calif.).

[6] = test system: RH strain T. gondii; test: Stage conversion (tachyzoite to bradyzoite) by flow cytometry, RH strain; format: cell-based, Toxoplasma gondii
Method: Bradyzoites highly express p36 (BSR4), and p21 in cell culture, and downregulate the tachyzoite-specific proteins SAG1 and SAG2 (38, 39). […] The drugs were replaced every 5 days. After 15 days, adherent, infected fibroblasts were recovered and freed intracellular organisms were analyzed by flow cytometry (FIG. 6A).
(§2) Tachyzoites were stained with murine monoclonal antibodies specific for tachyzoite protein (SAG-2, provided by Jacqueline Channon, Dartmouth) or bradyzoite-specific antibodies against p21 or p36 (32) followed by fixation with paraformaldehyde. Flow cytometric data were acquired on a FACS Calibur (Becton-Dickinson, Mountain View, Calif.) and analyzed using CellQuest software (Becton-Dickinson) with 5000 or more events evaluated for each condition. Analysis gates were set using appropriate antibody isotype controls, and dead cells were excluded based on light scatter characteristics.

[7] = test system: Me49 tachyzoites; test: Stage conversion (tachyzoite to bradyzoite) by flow cytometry, Me49 strain; format: cell-based, Toxoplasma gondii; conditions: Me49, after 5 days of treatment
Source text: as §2

[8] = test system: T. gondii infected dendritic cells; format: cell-based, human
[9] = test system: RH T. gondii; test: Combination with pyrimethamine: [3H]uracil incorporation in RH infected fibroblasts; format: cell-based, Toxoplasma gondii; conditions: SB203580 1 μM
Method: Fibroblasts were infected overnight and then treated with both drugs simultaneously or individually. Incorporated [^3H]methyuracil was measured 48 hours later. Data from one representative experiment is shown.
Pyrimethamine (Sigma) was dissolved in dimethylsulfoxide and added 1 hour after infection alone or in combination with other agents.

[10] = test system: T. gondii; test: T. gondii replication in dendritic cells; format: cell-based, Toxoplasma gondii
[11] = test system: T. gondii strain RH; test: Protection of fibroblast monolayers from T. gondii-mediated destruction
Source text: Photomicrographs were taken 5 days after treatment was begun.

[12] = test system: RH strain T. gondii; test: Diamidino-2-phenylindole staining / microscopy of infected fibroblasts: tachyzoite and vacuole morphology; conditions: for tachyzoite morphology (bi-/multinucleated forms): diamidino-2-phenylindole staining
Method: Parasitophorous vacuoles and tachyzoite morphology were assessed by diamidino-2-phenylindole staining 24 hours later using an ultraviolet light with excitation at 410-430 nM.
Tachyzoites were released from infected fibroblasts by forced passage through a 27-gauge needle, and used within 2 hours of collection to infect new host cells. Tachyzoites were enumerated with a hemacytometer using Trypan blue dye. To evaluate nuclear morphology, infected cells were stained with diamidino-2phenylindole (Sigma) and examined by light microscopy at 400× magnification. To estimate the intensity of T. gondii infection, cytospin preparations of aliquots of cells in infected cultures were stained with Giemsa stain and examined by light microscopy using a 40× objective. At least 200 cells per condition were counted.

[13] = test system: T. gondii; conditions: cited from earlier work
[14] = test system: extracellular T. gondii tachyzoites; test: Incubation of extracellular tachyzoites with drug, wash, then [3H]uracil incorporation in fresh fibroblasts; format: cell-based, Toxoplasma gondii; conditions: 10 μM, extracellular tachyzoites incubated 1 hour, washed; at 48 hours
[15] = target: human p38 MAPK (Homo sapiens, UniProt Q16539); conditions: cited from earlier work
human p38 MAPK, sequence (Q16539 whole entry): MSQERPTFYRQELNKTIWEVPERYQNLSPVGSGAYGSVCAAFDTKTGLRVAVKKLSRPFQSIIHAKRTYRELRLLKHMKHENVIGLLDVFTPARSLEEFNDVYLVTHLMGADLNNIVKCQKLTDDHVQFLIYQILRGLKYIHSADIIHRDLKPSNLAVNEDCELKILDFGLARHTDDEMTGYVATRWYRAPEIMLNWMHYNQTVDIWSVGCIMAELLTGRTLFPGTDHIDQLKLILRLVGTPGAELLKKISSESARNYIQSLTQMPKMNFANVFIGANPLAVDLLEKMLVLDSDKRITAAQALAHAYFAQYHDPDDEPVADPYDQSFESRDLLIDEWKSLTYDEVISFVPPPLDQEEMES

[16] = infected MOI 3 for 2 days, then 10 μM, 5 days after treatment was begun
[17] = single dose 10 μM 1 hour after infection, MOI 3, three days after infection
[18] = fibroblasts, [3H]methyluracil incorporation

C[S+]([O-])c1ccc(-c2nc(-c3ccc(F)cc3)c(-c3ccncc3)[nH]2)cc1 (centres unmarked) [SB203580, 4(4-fluorophenyl)-2-(4-methylsulfinylphenyl)-5(4-pyridyl)1H-imidazole]
inhibition of intracellular RH strain tachyzoite replication [1]: significantly inhibited | Me49 strain more susceptible to growth inhibition than RH strain [2]: approximately 12 fold | inhibition of replication of SBRRH2 in fibroblasts ([3]; 10 μM): no detectable capacity to inhibit | acyl-CoA:cholesterol acyltransferase activity [4]: did not interfere | tachyzoite cholesterol content [5]: only minimally reduced | p36+ organisms (bradyzoite marker) ([6]; 10 μM SB203580 or 1 μg pyrimethamine, 15 days): significantly higher number | p21+ cells (bradyzoite marker) ([6]; SB203580): not evident | SAG2+ organisms (tachyzoite marker) ([6]; after 15 days of culture with SB203580, 100% at culture outset): < 15% | SAG2 expression [7]: decreased | p21 expression [7]: significantly increased | reversal of T. gondii mediated immunosuppression [8]: significantly reversed immunosuppression | inhibition of RH T. gondii replication, single agent [9]: effective dose | T. gondii replication in dendritic cells [10]: does reduce | infected fibroblast monolayers under constant drug ([11]; constant 10 μM, four weeks): not destroyed | monolayer destroyed (FIG. 6 legend) [11, 16]: approximately 50% | infected fibroblast culture destroyed [11, 17]: approximately 50% | cyst-like structures in infected fibroblasts ([12]; after 3 to 5 days): developed cyst-like structures | tachyzoite morphology (bi-/multinucleated forms) [12]: induced formation of tachyzoites with two or more nuclei

O=c1c(-c2ccc(O)cc2)coc2cc(O)cc(O)c12 [genistein]
effect on intracellular T. gondii replication (Roisin et al.) [13]: no significant effect

CCc1nc(-c2ccc(OC)cc2)[nH]c1-c1ccncc1 [SB202474]
effect on Me49 tachyzoite replication [2, 18]: no significant effect | reduction of [3H]uracil incorporation [14]: < 15% | reversal of T. gondii mediated immunosuppression [8]: did not reverse immunosuppression | p38 MAPK inhibitory activity [15]: without significant p38 MAPK inhibitory effects | p38 MAPK inhibitory activity ([15]; listed as SB202494): no anti-p38 MAPK activity | state of monolayer (FIG. 6 legend) [11, 16]: completely destroyed | state of infected fibroblast culture [11, 17]: essentially destroyed | tachyzoite morphology (bi-/multinucleated forms) [12]: did not induce binucleated forms

N#CC(=C(/N)Sc1ccccc1N)/C(C#N)=C(\N)Sc1ccccc1N [U0126]
inhibition of intracellular RH strain tachyzoite replication [1]: no significant effect | effect on Me49 tachyzoite replication [2, 18]: no significant effect | reversal of T. gondii mediated immunosuppression [8]: did not reverse immunosuppression | tachyzoite morphology (bi-/multinucleated forms) [12]: did not induce binucleated forms

[O]=[V]([O-])([O-])[O-] [vanadate]
state of infected fibroblast culture [11, 17]: essentially destroyed

COc1cccc(-c2cc(=O)c3ccccc3o2)c1N [PD098059]
effect on intracellular T. gondii replication (Roisin et al.) [13]: slightly reduced

Oc1ccc(-c2nc(-c3ccc(F)cc3)c(-c3ccncc3)[nH]2)cc1 [SB202190, 4-(4-fluorophenyl)-2(4-hydroxphenyl)-5-(4 pyridyl)1H-imidazole]
IC50 ([1]; [3H]methyluracil incorporation, fibroblasts, estimated by linear interpolation, read-out: IC50 for inhibition of RH strain replication): ~5 µM | inhibition of intracellular RH strain tachyzoite replication [1]: significant inhibition | IC50 ([2]; [3H]methyluracil incorporation, fibroblasts, drug added 6 hours after infection, estimated by linear interpolation, read-out: IC50 for inhibition of Me49 strain replication): ~0.2 µM | Me49 strain more susceptible to growth inhibition than RH strain [2]: ~25 fold | cross-resistance of SB203580-resistant tachyzoites [3]: Cross-resistance to SB202190 was observed | reversal of T. gondii mediated immunosuppression [8]: significantly reversed immunosuppression | state of monolayer (FIG. 6 legend) [11, 16]: virtually intact | state of infected fibroblast culture [11, 17]: healthy and confluent
